Data: BigSolDB 2.1

O=C(O)c1ccccc1O
solubility (mole fraction)
Conditions	298.2 K	308.2 K	318.2 K	328.2 K	338.2 K
in acetone	0.137	0.139	0.156	0.196	–
in isopropanol	0.144	0.161	0.173	0.195	0.214
in n-propanol	0.132	0.15	0.163	0.179	0.195
in water	0.000295	0.000355	0.000507	0.000699	0.000944
